Laboratory results reported in PMC10714400, “Antimicrobial Peptide–Peptoid Hybrids with and without Membrane Disruption” (ACS Infectious Diseases, 2023).
Converted amounts (≈) assume the structure as drawn. Where a SMILES comes first, the peptide text is derived from it. [ ]: non-standard residue; d: D form. Nleu = CC(C)CNCC(=O)O; Nlys = NCCCCNCC(=O)O

How the values were obtained:
PA14 4.18 (pmrB) = test system: PA14 4.18 (pmrB)
Outline: (§1)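 MICs were determined by broth microdilution in MH medium, with approximately 5 × 10^5 CFU added per well and plates held at 37 °C for about 18 h without shaking.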

E. cloacae = settings: Table S3; […] MH at pH 8.5
Outline: as §1

[1] = test system: ZEM-1A (clinical MDR P. aeruginosa isolate)
Outline: as §1

S. aureus COL (MRSA) = test system: S. aureus COL (MRSA)
Outline: as §1

K. pneumoniae OXA-48 = settings: […] MH at pH 8.5
Outline: as §1

[2] = test system: ZEM9A (clinical MDR P. aeruginosa isolate); settings: […] MH at pH 8.5
Outline: as §1

PA14 4.13 (phoQ) = test system: PA14 4.13 (phoQ)
Outline: as §1

E. coli W3110 = test system: E. coli W3110
Outline: as §1

A. baumannii ATCC19606 = test system: A. baumannii ATCC19606
Outline: (§2)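 MTT added (20–30 min, room temperature); MIC read by eye as lowest concentration inhibiting visible growth (yellow). Polymyxin B positive control from 16 μg/mL.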

PA14 2P4 (pmrB) = test system: PA14 2P4 (pmrB)
Outline: as §1

K. pneumoniae NCTC418 = test system: K. pneumoniae NCTC418
Outline: as §2

P. aeruginosa PAO1 = test system: P. aeruginosa PAO1
Outline: as §1

[3] = Circular dichroism, α-helical content; type: physicochemical; settings: 0.1 mg/mL; for CD %α with 5 mM DPC: 10 mM phosphate buffer pH 7.4, 5 mM DPC; for CD %α with 20% TFE: 10 mM phosphate buffer pH 7.4, 20% TFE
S. aureus Newman = settings: Table S3; […] MH at pH 8.5
Outline: as §1

P. aeruginosa PA14 = settings: Table S3; […] MH at pH 8.5, 16-20 hours at 37 °C
Outline: as §1

S. maltophilia = settings: Table S3; […] MH at pH 8.5
Outline: as §1

B. cenocepacia = settings: 4 h, pH 8.5
Outline: as §1

S. epidermis = settings: Table S3; […] MH at pH 8.5
Outline: as §1

[4] = test system: human red blood cells (hRBC); test: Minimum hemolytic concentration (MHC); type: cell-based
Description: We also measured minimal hemolysis concentrations (MHC) on human red blood cells by serial 2-fold dilution as an indication of toxicity against eukaryotic cells (Table 1).

[5] = diluted MH ([…] MH) at pH 8.5 (Table 2 footnote b)

## CC(C)C[C@H](NC(=O)CN(CC(C)C)C(=O)[C@H](CC(C)C)NC(=O)CN(CCCCN)C(=O)[C@H](CC(C)C)NC(=O)CN(CC(C)C)C(=O)[C@H](CCCCN)NC(=O)CN(CC(C)C)C(=O)[C@H](CC(C)C)NC(=O)CN(CCCCN)C(=O)[C@@H](N)CCCCN)C(N)=O [EB9, KkLlKlLkLlL] (H-K[Nlys]L[Nleu]K[Nleu]L[Nlys]L[Nleu]L-NH2)
PA14 4.18 (pmrB); CSV, […] MH at pH 8.5
  MIC P. aeruginosa PA14 4.18, […] MH at pH 8.5: 6 ug/mL
PA14 4.18 (pmrB); Table S3, […] MH at pH 8.5
  MIC P. aeruginosa PA14 4.18: 4 to 8 µg/mL
PA14 4.18 (pmrB); [5]
  MIC PA14 4.18 (pmrB): 4 to 8 µg/mL
E. cloacae
  MIC E. cloacae: 16 µg/mL (≈ 12.1 µM)
[1]; CSV, […] MH at pH 8.5
  MIC P. aeruginosa ZEM-1A, […] MH at pH 8.5: 3 ug/mL
[1]; Table S3, […] MH at pH 8.5
  MIC P. aeruginosa ZEM-1A: 2 to 4 µg/mL
[1]; [5]
  MIC ZEM-1A: 2 to 4 µg/mL
S. aureus COL (MRSA); COL, 4 h, pH 7.4
  MIC S. aureus COL (MRSA), full MH at pH 7.4: >32 ug/mL
S. aureus COL (MRSA); COL, 4 h, pH 8.5
  MIC S. aureus COL (MRSA), full MH at pH 8.5: >32 ug/mL
S. aureus COL (MRSA); Table S2, […] MH, pH 7.4
  MIC S. aureus COL (MRSA) […] 7.4: 32 µg/mL (≈ 24.2 µM)
S. aureus COL (MRSA); Table S2, full MH, pH 7.4
  MIC S. aureus COL (MRSA) Full MH 7.4: > 32 µg/mL
S. aureus COL (MRSA); Table S2, full MH, pH 8.5
  MIC S. aureus COL (MRSA) Full MH 8.5: > 32 µg/mL
K. pneumoniae OXA-48; CSV
  MIC K. pneumoniae OXA-48, […] MH at pH 8.5: 32 ug/mL
K. pneumoniae OXA-48; Table S3
  MIC K. pneumoniae OXA-48: 32 µg/mL (≈ 24.2 µM)
[2]; CSV
  MIC P. aeruginosa ZEM9A, […] MH at pH 8.5: 2 ug/mL
[2]; Table S3
  MIC P. aeruginosa ZEM9A: 2 µg/mL (≈ 1.51 µM)
PA14 4.13 (phoQ); CSV, […] MH at pH 8.5
  MIC P. aeruginosa PA14 4.13, […] MH at pH 8.5: 2 ug/mL
PA14 4.13 (phoQ); [5]
  MIC PA14 4.13 (phoQ): 2 µg/mL (≈ 1.51 µM)
E. coli W3110; CSV, […] MH at pH 7.4
  MIC E. coli W3110, […] MH at pH 7.4: 2 ug/mL
E. coli W3110; CSV, […] MH at pH 8.5
  MIC E. coli W3110, […] MH at pH 8.5: 2 ug/mL
E. coli W3110; CSV, full MH at pH 7.4
  MIC E. coli W3110, full MH at pH 7.4: 16 ug/mL
E. coli W3110; E. coli W3110, […] MH at pH 8.5, up to 300 mM NaCl
  Antibacterial activity as a function of NaCl concentration: strongly reduced
E. coli W3110; Table S2, […] MH, pH 7.4
  MIC E. coli W3110 […] 7.4: 2 µg/mL (≈ 1.51 µM)
E. coli W3110; Table S2, […] MH, pH 8.5
  MIC E. coli W3110 […] 8.5: 2 µg/mL (≈ 1.51 µM)
E. coli W3110; Table S2, full MH, pH 7.4
  MIC E. coli W3110 Full MH 7.4: 16 µg/mL (≈ 12.1 µM)
E. coli W3110; Table S2, full MH, pH 8.5
  MIC E. coli W3110 Full MH 8.5: > 32 µg/mL
A. baumannii ATCC19606; ATCC19606, 4 h, pH 7.4
  MIC A. baumannii ATCC19606, full MH at pH 7.4: >32 ug/mL
A. baumannii ATCC19606; ATCC19606, 4 h, pH 8.5
  MIC A. baumannii ATCC19606, full MH at pH 8.5: >32 ug/mL
A. baumannii ATCC19606; Table S2, […] MH, pH 7.4
  MIC A. baumannii ATCC19606 […] 7.4: 16 µg/mL (≈ 12.1 µM)
A. baumannii ATCC19606; Table S2, […] MH, pH 8.5
  MIC A. baumannii ATCC19606 […] 8.5: 8 µg/mL (≈ 6.05 µM)
A. baumannii ATCC19606; Table S2, full MH, pH 7.4
  MIC A. baumannii ATCC19606 Full MH 7.4: > 32 µg/mL
A. baumannii ATCC19606; Table S2, full MH, pH 8.5
  MIC A. baumannii ATCC19606 Full MH 8.5: > 32 µg/mL
PA14 2P4 (pmrB); CSV, […] MH at pH 8.5
  MIC P. aeruginosa PA14 2P4, […] MH at pH 8.5: 4 ug/mL
PA14 2P4 (pmrB); [5]
  MIC PA14 2P4 (pmrB): 4 µg/mL (≈ 3.03 µM)
K. pneumoniae NCTC418; NCTC418, 4 h, pH 7.4
  MIC K. pneumoniae NCTC418, full MH at pH 7.4: >32 ug/mL
K. pneumoniae NCTC418; NCTC418, 4 h, pH 8.5
  MIC K. pneumoniae NCTC418, full MH at pH 8.5: >32 ug/mL
K. pneumoniae NCTC418; Table S2, […] MH, pH 7.4
  MIC K. pneumoniae NCTC418 […] 7.4: > 32 µg/mL
K. pneumoniae NCTC418; Table S2, […] MH, pH 8.5
  MIC K. pneumoniae NCTC418 […] 8.5: 16 µg/mL (≈ 12.1 µM)
K. pneumoniae NCTC418; Table S2, full MH, pH 7.4
  MIC K. pneumoniae NCTC418 Full MH 7.4: > 32 µg/mL
K. pneumoniae NCTC418; Table S2, full MH, pH 8.5
  MIC K. pneumoniae NCTC418 Full MH 8.5: > 32 µg/mL
P. aeruginosa PAO1; P. aeruginosa PAO1, […] MH at pH 8.5, up to 300 mM NaCl
  Antibacterial activity as a function of NaCl concentration: strongly reduced
P. aeruginosa PAO1; PAO1, 4 h, pH 7.4
  MIC P. aeruginosa PAO1, full MH at pH 7.4: 32 ug/mL
P. aeruginosa PAO1; Table S2, […] MH, pH 7.4
  MIC P. aeruginosa PAO1 […] 7.4: 4 µg/mL (≈ 3.03 µM)
P. aeruginosa PAO1; Table S2, […] MH, pH 8.5
  MIC P. aeruginosa PAO1 […] 8.5: 2 µg/mL (≈ 1.51 µM)
P. aeruginosa PAO1; Table S2, full MH, pH 7.4
  MIC P. aeruginosa PAO1 Full MH 7.4: 32 µg/mL (≈ 24.2 µM)
P. aeruginosa PAO1; Table S2, full MH, pH 8.5
  MIC P. aeruginosa PAO1 Full MH 8.5: > 32 µg/mL
[3]; DichroWeb, Contin-LL
  CD %α with 5 mM DPC: 11%
  CD %α with 20% TFE: 13%
[3]; Table S2
  CD %α with 5 mM DPC: 11%
  CD %α with 20% TFE: 13%
S. aureus Newman
  MIC S. aureus Newman: 4 µg/mL (≈ 3.03 µM)
P. aeruginosa PA14
  MIC P. aeruginosa PA14: 2 µg/mL (≈ 1.51 µM)
S. maltophilia
  MIC S. maltophilia: 8 µg/mL (≈ 6.05 µM)
B. cenocepacia
  MIC B. cenocepacia: >32 µg/mL
S. epidermis
  MIC S. epidermis: 2 µg/mL (≈ 1.51 µM)
[4]
  Hemolysis: none of them showed any measurable hemolysis
  MHC: >2000 µg/mL
